Laboratory results published in patent US20120016011A1, “RNA Interference Mediated Inhibition of Connective Tissue Growth Factor (CTGF) Gene Expression Using Short Interfering Nucleic Acid (siNA)” (Merck Sharp & Dohme Corp., priority 2009, published 2012).
[invAb] = inverted abasic unit; m = 2'-O-methyl; r = 2'-OH (RNA); f = 2'-fluoro

Key:
CTGF mRNA [1] = assay: CTGF mRNA knockdown (Taqman RT-PCR) after siNA transfection of human NHLF cells; format: cell-based; settings: 10 nM siNA, 24 hrs, average of 3 experiments, vs non-targeting control
Procedure: NHLF (Normal human lung fibroblasts; Lonza cat# CC-2512): Cells were cultured at 37° C. in the presence of 5% CO2 and grown in Fibroblast Basal Medium (Lonza cat# CC-3132) supplemented with 2% FBS and growth factors (provided with the kit) and 100 μg/mL of streptomycin and 100 U/mL penicillin.
(§1) Cells were plated in all wells of a tissue-culture treated, 96-well plate at a final count of 5000 cells/well in […], of the appropriate culture media. The cells were cultured for 24 hours after plating at 37° C. in the presence of 5% CO2.
(§2) After 24 hours, complexes containing siNA and RNAiMax were created as follows: A solution of RNAiMax diluted 33-fold in OPTI-MEM was prepared. In parallel, solutions of the siNAs for testing were prepared to a final concentration of 120 nM in OPTI-MEM. After incubation of RNAiMax/OPTI-MEM solution at room temperature for 5 min, an equal volume of the siNA solution and the RNAiMax solution were added together for each of the siNAs.
(§3) This solution was incubated at room temperature for 20 minutes. After incubation, 20 uL of the solution was added to each of the relevant wells. The final concentration of siNA in each well was 10 nM and the final volume of RNAiMax in each well was 0.3 ul.
(§4) The time of incubation with the RNAiMax-siNA complexes was 24 hours and there was no change in media between transfection and harvesting, unless otherwise indicated.
(§5) RNA was extracted from a 96-well plate using the TaqMan® Gene Expression Cells-to-CT™ Kit (Cat# 4399002) with a modified protocol. Briefly, a 60 uL (1 plate) or 110 uL (2 plates) of the Lysis Solution with DNase I was dispensed into each well of the Lysis Buffer Plate (twin.tec full skirt plate). The lysis buffer and stop plates were stored at 4° C. until the cells were washed.
(§6) The plate was spun at 1100 rpm for 5 minutes. The culture medium was aspirated and discarded from the wells of the culture plate. The lysis was performed automatically using a BioMek FX instrument and method. After the Biomek method was completed, the lysis plate was incubated for 2 min. at room temperature. The lysis plate can be stored for 2 hours at 4° C., or at −20° C. or −80° C. for two months.
(§7) Each well of the reverse transcription plate required 10 uL of 2× reverse transcriptase Buffer, 1 uL of 20× reverse transcription enzyme and 2 uL of nuclease-free water. The reverse transcription master mix was prepared by mixing 2× reverse transcription buffer, 20× reverse transcription enzyme mix, and nuclease-free water. 13 uL of the reverse transcription master mix was dispensed into each well of the reverse transcription plate (semi-skirted). A separate reverse transcription plate was prepared for each cell plate. The plate was loaded onto a Biomek NX or Biomek FX Dual -96 and the Biomek method was run. The program is programmed to automatically added 7 uL of lysate from the cell lysis procedure described above into each well of the reverse transcription plate. The plate is sealed and spun on a centrifuge (1000 rpm for 30 seconds) to settle the contents to the bottom of the reverse transcription plate. The plate is placed in a thermocycler at 37° C. for 60 min, 95° C. for 5 min, and 4° C. until the plate is removed from the thermocycler. Upon removal, if not used immediately, the plate was frozen at −20° C.
(§8) A series of probes and primers were used to detect the various mRNA transcripts of the genes of β-Actin (human cell line only), and of CTGF and GAPDH in mouse and human cell lines. All Taqman probes and primers for the experiments here-in described were supplied as pre-validated sets by Applied Biosystems, Inc. (see Table 3).
The assays were performed on an ABI 7900 instrument, according to the manufacturer's instructions. A TaqMan Gene Expression Master Mix (provided in the Cells-to-CT™, Applied Biosystems, Cat # 4399002) was used. The PCR reactions were carried out at 50° C. for 2 min, 95° C. for 20 min followed by 40 cycles at 95° C. for 15 secs and 60° C. for 1 min. […]

CTGF mRNA [2] = assay: CTGF mRNA knockdown (Taqman RT-PCR) after siNA transfection of mouse NIH 3T3 cells; format: cell-based; settings: mouse NIH3T3 cells, 10 nM siNA, 24 hrs, average of 3 experiments, vs non-targeting control
Procedure: NIH 3T3 (mouse; ATCC cat# CRL-1658): Cells were cultured at 37° C. in the presence of 5% CO2 and grown in Dulbecco's modified Eagle's medium (DMEM) with 4 mM L-glutamine adjusted to contain 1.5 g/L sodium bicarbonate and 4.5 g/L glucose and supplemented with fetal bovine serum at a final concentration of 10%, 100 μg/mL of streptomycin, and 100 U/mL penicillin.
as §1, §2, §3, §4, §5, §6, §7, §8
The assays were performed on an ABI 7900 instrument, according to the manufacturer's instructions. A TaqMan Gene Expression Master Mix (provided in the Cells-to-CT™, Applied Biosystems, Cat # 4399002) was used. […]

## 48067-DC: siNA duplex; sense SEQ ID NO: 99 B GGGucAAGcuGccuGGGAA TTB; antisense SEQ ID NO: 100 UUCccAGGcAGcuuGAcccUU (sense GGGUCAAGCUGCCUGGGAATT; antisense UUCCCAGGCAGCUUGACCCUU; sense: DNA at AGT, 2'-fluoro at CU, [invAb] at 5' end, 3' end, backbone not given here; antisense: sugars from the 5' end rrrffmmmfmmfffmmfffmm, backbone not given here)
CTGF mRNA [1]
  % KD Human: −3 ± 31%
CTGF mRNA [2]
  % KD Mouse: 26 ± 5%

## 48063-DC: siNA duplex; sense SEQ ID NO: 91 B AcAcGAAcucAuuAGAcuA TTB; antisense SEQ ID NO: 92 UAGucuAAuGAGuucGuGuUU (sense ACACGAACUCAUUAGACUATT; antisense UAGUCUAAUGAGUUCGUGUUU; sense: DNA at AGT, 2'-fluoro at CU, [invAb] at 5' end, 3' end, backbone not given here; antisense: sugars from the 5' end rrrfffmmfmmmfffmfmfmm, backbone not given here)
CTGF mRNA [1]
  % KD Human: 59 ± 3%
CTGF mRNA [2]
  % KD Mouse: 84 ± 2%

## 48077-DC: siNA duplex; sense SEQ ID NO: 119 B AGGAAGuAAGGGAcAcGAA TTB; antisense SEQ ID NO: 120 UUCGuGucccuuAcuuccuUU (sense AGGAAGUAAGGGACACGAATT; antisense UUCGUGUCCCUUACUUCCUUU; sense: DNA at AGT, 2'-fluoro at CU, [invAb] at 5' end, 3' end, backbone not given here; antisense: sugars from the 5' end rrrmfmffffffmffffffmm, backbone not given here)
CTGF mRNA [1]
  % KD Human: 19 ± 2%
CTGF mRNA [2]
  % KD Mouse: 71 ± 4%

## 48071-DC: siNA duplex; sense SEQ ID NO: 107 B ccAAcuAuGAuGcGAGccA TTB; antisense SEQ ID NO: 108 UGGcucGcAucAuAGuuGGUU (sense CCAACUAUGAUGCGAGCCATT; antisense UGGCUCGCAUCAUAGUUGGUU; sense: DNA at AGT, 2'-fluoro at CU, [invAb] at 5' end, 3' end, backbone not given here; antisense: sugars from the 5' end rrrfffmfmffmfmmffmmmm, backbone not given here)
CTGF mRNA [1]
  % KD Human: 30 ± 15%
CTGF mRNA [2]
  % KD Mouse: 21 ± 5%

## 48066-DC: siNA duplex; sense SEQ ID NO: 97 B AcAGuuuAcAcuuGAcAGu TTB; antisense SEQ ID NO: 98 ACUGucAAGuGuAAAcuGuUU (sense ACAGUUUACACUUGACAGUTT; antisense ACUGUCAAGUGUAAACUGUUU; sense: DNA at AGT, 2'-fluoro at CU, [invAb] at 5' end, 3' end, backbone not given here; antisense: sugars from the 5' end rrrmffmmmfmfmmmffmfmm, backbone not given here)
CTGF mRNA [1]
  % KD Human: 17 ± 7%
CTGF mRNA [2]
  % KD Mouse: 80 ± 1%

## 48052-DC: siNA duplex; sense SEQ ID NO: 69 B GcGAGGucAuGAAGAAGAA TTB; antisense SEQ ID NO: 70 UUCuucuucAuGAccucGcUU (sense GCGAGGUCAUGAAGAAGAATT; antisense UUCUUCUUCAUGACCUCGCUU; sense: DNA at AGT, 2'-fluoro at CU, [invAb] at 5' end, 3' end, backbone not given here; antisense: sugars from the 5' end rrrffffffmfmmffffmfmm, backbone not given here)
CTGF mRNA [1]
  % KD Human: 27 ± 16%
CTGF mRNA [2]
  % KD Mouse: 41 ± 4%
